The results in this text go back to patent publication US10246426B2, “Triazole compounds as T-type calcium channel blockers” (IDORSIA PHARMACEUTICALS LTD, priority 2014, dated 2019).

Sequence of Cav3.2 (O95180 whole entry, looked up): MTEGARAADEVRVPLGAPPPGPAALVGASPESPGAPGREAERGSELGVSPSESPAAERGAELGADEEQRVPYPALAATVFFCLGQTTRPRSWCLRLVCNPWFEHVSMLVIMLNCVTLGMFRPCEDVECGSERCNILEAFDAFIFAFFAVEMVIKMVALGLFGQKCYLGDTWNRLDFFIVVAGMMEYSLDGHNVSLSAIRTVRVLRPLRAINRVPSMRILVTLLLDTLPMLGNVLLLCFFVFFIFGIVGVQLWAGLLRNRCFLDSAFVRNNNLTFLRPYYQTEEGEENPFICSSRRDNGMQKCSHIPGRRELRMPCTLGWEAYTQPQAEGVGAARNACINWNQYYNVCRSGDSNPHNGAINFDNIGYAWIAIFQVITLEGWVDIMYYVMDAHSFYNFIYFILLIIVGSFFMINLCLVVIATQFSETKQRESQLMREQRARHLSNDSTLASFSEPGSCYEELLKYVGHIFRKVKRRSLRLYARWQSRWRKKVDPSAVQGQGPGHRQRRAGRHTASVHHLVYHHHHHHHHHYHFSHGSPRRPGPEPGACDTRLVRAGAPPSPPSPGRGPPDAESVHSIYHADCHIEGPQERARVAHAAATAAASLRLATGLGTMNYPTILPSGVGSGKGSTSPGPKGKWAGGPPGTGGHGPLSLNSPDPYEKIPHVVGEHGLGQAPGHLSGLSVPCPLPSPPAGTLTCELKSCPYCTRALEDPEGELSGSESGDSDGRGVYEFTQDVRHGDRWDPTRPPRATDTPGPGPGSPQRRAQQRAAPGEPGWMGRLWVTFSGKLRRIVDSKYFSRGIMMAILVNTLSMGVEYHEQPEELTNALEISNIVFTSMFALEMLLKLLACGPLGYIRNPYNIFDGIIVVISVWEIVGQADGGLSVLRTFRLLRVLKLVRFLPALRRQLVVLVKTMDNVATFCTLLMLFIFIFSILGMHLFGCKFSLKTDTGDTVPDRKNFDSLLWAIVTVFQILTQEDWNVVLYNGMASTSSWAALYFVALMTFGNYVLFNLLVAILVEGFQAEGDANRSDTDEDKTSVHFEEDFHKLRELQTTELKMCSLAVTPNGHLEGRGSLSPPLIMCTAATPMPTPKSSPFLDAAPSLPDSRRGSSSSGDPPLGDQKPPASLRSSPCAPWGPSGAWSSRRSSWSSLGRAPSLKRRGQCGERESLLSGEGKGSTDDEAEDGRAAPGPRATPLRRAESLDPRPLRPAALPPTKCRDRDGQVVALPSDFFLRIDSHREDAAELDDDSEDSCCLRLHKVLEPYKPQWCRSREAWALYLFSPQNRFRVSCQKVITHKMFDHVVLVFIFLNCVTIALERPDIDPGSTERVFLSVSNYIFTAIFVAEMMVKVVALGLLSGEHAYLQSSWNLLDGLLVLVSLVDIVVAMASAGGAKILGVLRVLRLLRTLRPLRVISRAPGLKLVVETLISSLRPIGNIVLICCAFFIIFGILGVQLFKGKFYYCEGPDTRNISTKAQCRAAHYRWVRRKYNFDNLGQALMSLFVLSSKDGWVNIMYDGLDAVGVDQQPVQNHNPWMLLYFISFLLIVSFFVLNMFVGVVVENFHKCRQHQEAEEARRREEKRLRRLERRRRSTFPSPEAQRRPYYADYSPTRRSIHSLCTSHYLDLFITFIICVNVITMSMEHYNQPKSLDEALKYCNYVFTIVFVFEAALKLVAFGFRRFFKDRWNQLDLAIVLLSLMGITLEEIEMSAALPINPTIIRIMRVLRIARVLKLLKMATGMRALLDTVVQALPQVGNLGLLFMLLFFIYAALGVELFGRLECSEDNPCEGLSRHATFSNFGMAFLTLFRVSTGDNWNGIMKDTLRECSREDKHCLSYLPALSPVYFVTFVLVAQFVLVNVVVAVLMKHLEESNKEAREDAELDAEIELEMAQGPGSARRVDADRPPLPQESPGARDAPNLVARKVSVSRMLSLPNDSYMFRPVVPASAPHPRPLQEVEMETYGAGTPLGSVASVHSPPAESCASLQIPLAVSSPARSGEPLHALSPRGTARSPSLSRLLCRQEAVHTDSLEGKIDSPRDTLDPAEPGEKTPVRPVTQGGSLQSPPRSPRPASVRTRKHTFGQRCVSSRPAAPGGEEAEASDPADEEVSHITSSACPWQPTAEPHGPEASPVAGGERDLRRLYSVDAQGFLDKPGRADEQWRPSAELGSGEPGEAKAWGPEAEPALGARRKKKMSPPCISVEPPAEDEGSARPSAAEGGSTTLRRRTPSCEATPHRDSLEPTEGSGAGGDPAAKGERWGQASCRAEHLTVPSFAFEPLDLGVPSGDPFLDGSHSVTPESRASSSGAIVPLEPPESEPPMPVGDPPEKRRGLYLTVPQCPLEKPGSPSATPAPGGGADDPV

In the assay the target is Cav3.2 (Homo sapiens, UniProt O95180). Briefly: Calcium flux FLIPR assay, HEK293 cells recombinantly expressing Cav3.2. It is filed as cell-based. The settings on record: Cav3.2-channel, Ca2+ entry stimulated by 10 mM CaCl2. The procedure:
In Vitro Methods—Measurement of Calcium Channel Flux by Means of FLIPR Assays.
HEK293 cells recombinantly expressing either voltage-dependent T-type calcium channel subunit […] (Cav3.2) or voltage-dependent L-type calcium channel subunit alpha-1C (Cav1.2) are assayed for calcium flux using the calcium indicator dye Fluo-4-AM (Molecular Devices) and FLIPR technology (Fluorometric Imaging Plate Reader, Molecular Devices) (Xie X, Van Deusen A L, Vitko I, Babu D A, Davies L A, Huynh N, Cheng H, Yang N, Barrett P Q, Perez-Reyes E. Validation of high throughput screening assays against three subtypes of Ca(v)3 T-type channels using molecular and pharmacologic approaches. Assay and Drug Development Technologies 2007, 5(2), 191-203). The HEK293 cells recombinantly expressing Cav3.2 are maintained in DMEM growth medium (Life Technologies) supplemented with 10% Fetal Bovine Serum (FBS), 100 U/ml penicilin (Life Technologies), 100 μg/ml streptomycin (Life Technologies) and 1 mg/ml G418 (Life Technologies). HEK293 cells recombinantly expressing Cav1.2 are maintained in DMEM growth medium (Life technologies) supplemented with 10% FBS, 0.1 mg/ml G418 (Life Technologies), 0.1 mg/ml hygromycin (Life Technologies) and 40 ug/ml zeocin (Life Technologies).
Cells are washed once with PBS, then dissociated in 0.25% trypsin/EDTA (Life Technologies) and seeded into poly-D-lysine coated 384-well black, clear bottom plates (BD Biosciences) at a density of 30,000 cells/well. The seeded plates are incubated overnight at 37° C.
Immediately prior to performing the assay, medium is removed and cells are treated for 1 hour at 37° C. with loading buffer containing HBSS 1× (137 mM NaCl; 5.4 mM KCl; 0.25 mM Na2HPO4; 1.3 mM CaCl2; 0.4 mM MgSO04; 0.5 mM MgCl2; 0.4 mM KH2PO4, pH 7.4), 0.375 g/L NaHCO3, 20 mM Hepes, supplemented with 3 μM Fluo-4-AM and 0.15% Pluronic (Life Technologies). The cells are then washed three times with assay buffer (HBSS 1×; 0.375 g/L NaHCO3; 20 mM Hepes; 1% FBS; pH 7.4) and allowed to rest in 50 μl of wash buffer for 30 minutes.
Stock solutions of test compounds are prepared to a concentration of 10 mM in DMSO. For the Cav3.2 assay, serial dilutions of the compounds are prepared in TEAC buffer (100 mM tetraethylammonium chloride; 20 mM Hepes; 2.5 mM CaCl2; 5 mM KCl; 1 mM MgCl2; 1% FBS; pH 7.2), for the Cav1.2 assay serial dilutions are prepared in assay buffer. […] The compounds are incubated with the cells for 3 minutes and Ca2+ entry is stimulated by adding either CaCl2 to a final concentration of 10 mM (Cav3.2 assay) or by adding KCl to a final concentration of 20 mM (Cav1.2 assay). The kinetics of fluorescence increase are recorded for every well and the area under the fluorescence trace for every compound concentration is used to generate inhibition curves using non-linear regression sigmoidal concentration-response curve analysis with in-house software. IC50 values are calculated and represent the compound concentration required to inhibit 50% of the signal that is obtained in the presence of vehicle instead of test compound.
For `COc1ccc(Cn2ncc(NC(=O)Cc3ccc(N4CCC(F)(F)C4)nc3)n2)cc1OC` [Example 48, 2-[6-(3,3-Difluoro-pyrrolidin-1-yl)-pyridin-3-yl]-N-[2-(3,4-dimethoxy-benzyl)-2H-[1,2,3]triazol-4-yl]-acetamide], the IC50 is 0.53 µM.

For the compound `COc1cc(Cn2ncc(NC(=O)Cc3ccc(C(C)(C)C)cc3)n2)ccc1F` [Example 119, 2-(4-tert-Butyl-phenyl)-N-[2-(4-fluoro-3-methoxy-benzyl)-2H-[1,2,3]triazol-4-yl]-acetamide], the IC50 was determined as 0.062 µM.

For the compound `N#Cc1ccc(Cn2ncc(NC(=O)Cc3ccc(OC4CC(F)(F)C4)cc3)n2)nc1` [Example 246, N-[2-(5-Cyano-pyridin-2-ylmethyl)-2H-[1,2,3]triazol-4-yl]-2-[4-(3,3-difluoro-cyclobutoxy)-phenyl]-acetamide], the IC50 was found to be 0.68 µM.

On to `COc1cc(Cn2ncc(NC(=O)Cc3ccc4cnn(C)c4c3)n2)cc(F)c1F` [Example 225, N-[2-(3,4-Difluoro-5-methoxy-benzyl)-2H-[1,2,3]triazol-4-yl]-2-(1-methyl-1H-indazol-6-yl)-acetamide], for which the IC50 was found to be 0.56 µM.

For `Cn1ncc2ccc(CC(=O)Nc3cnn(Cc4ccc(C#N)c(F)c4)n3)cc21` [Example 132, N-[2-(4-Cyano-3-fluoro-benzyl)-2H-[1,2,3]triazol-4-yl]-2-(1-methyl-1H-indazol-6-yl)-acetamide], the IC50 amounted to 0.18 µM.

`CC(C)c1ccc(CC(=O)Nc2cnn(Cc3ccc(C#N)c(F)c3)n2)cc1` [Example 74, N-[2-(4-Cyano-3-fluoro-benzyl)-2H-[1,2,3]triazol-4-yl]-2-(4-isopropyl-phenyl)-acetamide]: the IC50 amounted to 0.045 µM.

`COc1ccc(Cn2ncc(NC(=O)Cc3ccc(C4(F)COC4)cc3)n2)cc1F` [Example 127, N-[2-(3-Fluoro-4-methoxy-benzyl)-2H-[1,2,3]triazol-4-yl]-2-[4-(3-fluoro-oxetan-3-yl)-phenyl]-acetamide]: the IC50 is 0.11 µM.

As to `CC(C)(C)c1ccc(CC(=O)Nc2cnn(Cc3ccc(C#N)cn3)n2)cc1` [Example 244, 2-(4-tert-Butyl-phenyl)-N-[2-(5-cyano-pyridin-2-ylmethyl)-2H-[1,2,3]triazol-4-yl]-acetamide], the IC50 worked out at 0.034 µM.

Regarding `Cn1ccc2cc(CC(=O)Nc3cnn(Cc4ccc(F)cc4)n3)ccc21` [Example 52, N-[2-(4-Fluoro-benzyl)-2H-[1,2,3]triazol-4-yl]-2-(1-methyl-1H-indol-5-yl)-acetamide], the IC50 came out at 0.012 µM.

`Cc1ccc(Cn2ncc(NC(=O)Cc3ccc4c(ccn4C)c3)n2)cc1` [Example 64, N-[2-(4-Methyl-benzyl)-2H-[1,2,3]triazol-4-yl]-2-(1-methyl-1H-indol-5-yl)-acetamide]: the IC50 stood at 0.03 µM.

`COc1cc(Cn2ncc(NC(=O)Cc3ccc(C4(F)COC4)cc3)n2)ccc1F` [Example 116, N-[2-(4-Fluoro-3-methoxy-benzyl)-2H-[1,2,3]triazol-4-yl]-2-[4-(3-fluoro-oxetan-3-yl)-phenyl]-acetamide]: the IC50 stood at 0.14 µM.

As for `COc1cc(Cn2ncc(NC(=O)Cc3ccc4c(c3)c(C)cn4C)n2)ccc1F` [Example 118, 2-(1,3-Dimethyl-1H-indol-5-yl)-N-[2-(4-fluoro-3-methoxy-benzyl)-2H-[1,2,3]triazol-4-yl]-acetamide], the IC50 was determined as 0.063 µM.

For `CC(C)(C)c1ccc(CC(=O)Nc2cnn(Cc3ccc(OC(F)(F)F)c(F)c3)n2)cc1` [Example 184, 2-(4-tert-Butyl-phenyl)-N-[2-(3-fluoro-4-trifluoromethoxy-benzyl)-2H-[1,2,3]triazol-4-yl]-acetamide], the 50% inhibitory concentration (IC50) worked out at 0.083 µM.

Consider `CC(C)(C)c1ccc(CC(=O)Nc2cnn(Cc3ccc(C#N)c(F)c3)n2)cc1` [Example 73, 2-(4-tert-Butyl-phenyl)-N-[2-(4-cyano-3-fluoro-benzyl)-2H-[1,2,3]triazol-4-yl]-acetamide], for which the IC50 is 0.037 µM.

In the case of `CCn1ncc2cc(CC(=O)Nc3cnn(Cc4ccc(F)c(F)c4)n3)ccc21` [Example 27, N-[2-(3,4-Difluoro-benzyl)-2H-[1,2,3]triazol-4-yl]-2-(1-ethyl-1H-indazol-5-yl)-acetamide], the IC50 is 0.0098 µM.

`CC(C)c1ccc(CC(=O)Nc2cnn(Cc3ccc(F)c(F)c3)n2)cc1` [Example 5, N-[2-(3,4-Difluoro-benzyl)-2H-[1,2,3]triazol-4-yl]-2-(4-isopropyl-phenyl)-acetamide]: the IC50 turned out to be 0.03 µM.

For `Cn1ncc2cc(CC(=O)Nc3cnn(Cc4ccc(OC(F)F)c(F)c4)n3)ccc21` [Example 179, N-[2-(4-Difluoromethoxy-3-fluoro-benzyl)-2H-[1,2,3]triazol-4-yl]-2-(1-methyl-1H-indazol-5-yl)-acetamide], the IC50 turned out to be 0.022 µM.

For the compound `Cc1cc(Cn2ncc(NC(=O)Cc3ccc(N4CCC(F)(F)C4)nc3)n2)ccc1C#N` [Example 167, N-[2-(4-Cyano-3-methyl-benzyl)-2H-[1,2,3]triazol-4-yl]-2-[6-(3,3-difluoro-pyrrolidin-1-yl)-pyridin-3-yl]-acetamide], the IC50 came out at 0.022 µM.

As for `O=C(Cc1ccc(N2CCCC2)nc1)Nc1cnn(Cc2ccc(F)cc2)n1` [Example 55, N-[2-(4-Fluoro-benzyl)-2H-[1,2,3]triazol-4-yl]-2-(6-pyrrolidin-1-yl-pyridin-3-yl)-acetamide], the IC50 is 0.05 µM.

As for `CC(C)(C#N)c1ccc(CC(=O)Nc2cnn(Cc3ccc(C#N)c(F)c3)n2)cc1` [Example 157, 2-[4-(Cyano-dimethyl-methyl)-phenyl]-N-[2-(4-cyano-3-fluoro-benzyl)-2H-[1,2,3]triazol-4-yl]-acetamide], the IC50 stood at 0.031 µM.

For `Cc1ccc(Cn2ncc(NC(=O)Cc3ccc(C4(F)COC4)cc3)n2)cc1C#N` [Example 201, N-[2-(3-Cyano-4-methyl-benzyl)-2H-[1,2,3]triazol-4-yl]-2-[4-(3-fluoro-oxetan-3-yl)-phenyl]-acetamide], the IC50 came out at 0.31 µM.

Turning to `Cc1ccc(Cn2ncc(NC(=O)Cc3ccc(C(C)C)cc3)n2)cc1C#N` [Example 216, N-[2-(3-Cyano-4-methyl-benzyl)-2H-[1,2,3]triazol-4-yl]-2-(4-isopropyl-phenyl)-acetamide], the IC50 came to 0.074 µM.

In the case of `O=C(Cc1ccc(OC2CC2)cc1)Nc1cnn(Cc2ccc(F)c(F)c2)n1` [Example 10, 2-(4-Cyclopropoxy-phenyl)-N-[2-(3,4-difluoro-benzyl)-2H-[1,2,3]triazol-4-yl]-acetamide], the half-maximal inhibitory concentration (IC50) was found to be 0.023 µM.

Consider `COc1ccc(Cn2ncc(NC(=O)Cc3ccc(C4(F)COC4)cc3)n2)cc1C#N` [Example 214, N-[2-(3-Cyano-4-methoxy-benzyl)-2H-[1,2,3]triazol-4-yl]-2-[4-(3-fluoro-oxetan-3-yl)-phenyl]-acetamide], for which the IC50 is 0.25 µM.

Regarding `Cc1ccc(Cn2ncc(NC(=O)Cc3ccc(C(C)(C)C)cc3)n2)cc1C#N` [Example 217, 2-(4-tert-Butyl-phenyl)-N-[2-(3-cyano-4-methyl-benzyl)-2H-[1,2,3]triazol-4-yl]-acetamide], the concentration for half-maximal inhibition (IC50) amounted to 0.16 µM.

Take `Cc1cc(Cn2ncc(NC(=O)Cc3ccc4c(c3)c(C)cn4C)n2)ccc1C#N` [Example 171, N-[2-(4-Cyano-3-methyl-benzyl)-2H-[1,2,3]triazol-4-yl]-2-(1,3-dimethyl-1H-indol-5-yl)-acetamide]: the IC50 was found to be 0.022 µM.

In the case of `COc1ccc(Cn2ncc(NC(=O)Cc3ccc(N4CCCC4)nc3)n2)cc1F` [Example 156, N-[2-(3-Fluoro-4-methoxy-benzyl)-2H-[1,2,3]triazol-4-yl]-2-(6-pyrrolidin-1-yl-pyridin-3-yl)-acetamide], the IC50 was 0.07 µM.

Turning to `CN(C)c1ccc(CC(=O)Nc2cnn(Cc3ccc(F)cc3)n2)cc1` [Example 2, 2-(4-Dimethylamino-phenyl)-N-[2-(4-fluoro-benzyl)-2H-[1,2,3]triazol-4-yl]-acetamide], the IC50 turned out to be 0.017 µM.
